Where “and” joins values, the source holds several entries; their conditions need not be identical. Identical values can stand only once.
Experiments:
α1β2γ2L GABAAR [1] = target: T1, α1β2γ2L GABAAR (Rattus norvegicus, UniProt P18508+P62813+P63138, INS375LLRMFSFK); experiment: Direct activation, two-electrode voltage clamp in Xenopus oocytes; type: cell-based; conditions: 50 μM α7-PAM; n=5 oocytes/drug; mean±SEM
α1β3γ2L GABAAR = α1β3γ2L GABAAR (Homo sapiens, UniProt P14867+P18507+P28472); type: binding
α1β2γ2L GABAAR [2] = target: T1, α1β2γ2L GABAAR; type: cell-based
α1β2γ2L GABAAR [3] = target: T1, α1β2γ2L GABAAR; experiment: Modulation of steady-state response to saturating GABA, Xenopus oocytes; type: cell-based; conditions: 50 μM α7-PAM; 1 mM GABA
α1β2γ2L GABAAR [4] = target: T1, α1β2γ2L GABAAR; experiment: Drug combination; type: cell-based
α1β2γ2L GABAAR [5] = target: T1, α1β2γ2L GABAAR; experiment: Potentiation of receptors activated by allosteric agonists; type: cell-based
[6] = c 0.804, KR,PNU-120596 constrained to 10 μM
[7] = c 0.804, KR,PNU-120596 constrained to 50 μM
[8] = c 0.804, KR,PNU-120596 constrained to 100 μM

For `COc1cc(OC)c(NC(=O)Nc2cc(C)on2)cc1Cl` [PNU-120596, N-(5-Cl-2,4-dimethoxyphenyl)-N’-(5-methyl-3-isoxazolyl)-urea], the “direct activation: response as % of the peak response to 1 mM GABA+50 μM propofol” value (α1β2γ2L GABAAR [1]) was 0.38±0.09%, the “shift in GABA F/Fo curves” value (α1β3γ2L GABAAR; 3-10 μM α7-PAM) was “Leftward shift” and the “direct effect on fluorescence from α1β3γ2L-bound Gzn-OG (orthosteric site)” value (α1β3γ2L GABAAR; 3-100 μM α7-PAM, no GABA) was “do not modify fluorescence”. For the same compound, the “potentiation of the response to low GABA (% of control)” value (α1β2γ2L GABAAR [2]; 50 μM α7-PAM, 2-5 μM GABA (PA<0.10), 100% = no effect, mean±SEM) was 133±11 % of control, the “free energy change (ΔG) towards stabilizing the active state” value (α1β2γ2L GABAAR [2]; co-agonist concerted transition model) was -0.26 ± 0.04 kcal/mol and -0.26 kcal/mol and the “potentiation EC50 (Hill equation)” value (α1β2γ2L GABAAR [2]; coapplied with low GABA (PA=0.05-0.13)) was “the fits did not converge”. For the same compound, the “steady-state response to saturating GABA in presence of α7-PAM (% of control)” value (α1β2γ2L GABAAR [3]) was 90±2 % of control, the “PA of response to low GABA+NS-1738 with PNU-120596 coapplied” value (α1β2γ2L GABAAR [4]; 0.1-0.5 μM GABA+10 μM NS-1738+50 μM PNU-120596, 5 oocytes) was 0.074±0.024 and the “predicted PA for GABA+NS-1738+PNU-120596, distinct site model” value (“predicted PA … distinct site model” below) (α1β2γ2L GABAAR [4]; [6]) was 0.114. For the same compound, the “predicted PA for GABA+NS-1738+PNU-120596, same site model” value (“predicted PA … same site model” below) (α1β2γ2L GABAAR [4]; [6]) was 0.047, the “predicted PA … distinct site model” value (α1β2γ2L GABAAR [4]; [7]) was 0.103 and the “predicted PA … same site model” value (α1β2γ2L GABAAR [4]; [7]) was 0.065. The “predicted PA … distinct site model” value (α1β2γ2L GABAAR [4]; [8]) was 0.097 and the “predicted PA … same site model” value (α1β2γ2L GABAAR [4]; [8]) was 0.073.
With `CCOC(=O)c1cncn1[C@H](C)c1ccccc1` [R(+)-etomidate, R-1-(1-ethylphenyl)imidazole-5-ethyl ester] the “PA of response to R(+)-etomidate alone” value (α1β2γ2L GABAAR [5]; 2-4 μM R(+)-etomidate) was 0.053±0.015 and 0.041±0.013.
In the case of `CC(C)c1cccc(C(C)C)c1O` [propofol], the “PA of currents elicited by propofol alone” value (α1β2γ2L GABAAR [5]; 10 μM propofol) is reported as 0.06-0.07.

Reference: paper PMC9669183 (British journal of pharmacology, 2022)
